Source: ChEMBL document CHEMBL1201862, “PubChem BioAssay data set” (2004)
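The compound was tested at five concentrations on cells cultured in 96-well plates, with a 48-hour exposure period. Abbreviation: GI50, concentration required for 50% inhibition of growth.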 Calls of active or inactive are those of the source. Cut-off read from the data, not from the text of the source: active = GI50 up to about 1.1 µM and inactive = higher.

How the values were obtained:
Assay in all cases: NCI tumour cell line growth inhibition, 48 h
[1] = system: HCT-15
[2] = system: PC-3
[3] = system: HCT-116
[4] = system: U-251
[5] = system: HCC 2998
[6] = system: UACC-62
[7] = system: UO-31
[8] = system: 786-0
[9] = system: CCRF-CEM
[10] = system: M14
[11] = system: MDA-N
[12] = system: OVCAR-4
[13] = system: T47D
[14] = system: SK-MEL-5
[15] = system: OVCAR-5
[16] = system: SN12C
[17] = system: COLO 205
[18] = system: K562
[19] = system: NCI/ADR-RES
[20] = system: SK-OV-3
[21] = system: LOX IMVI
[22] = system: SNB-75
[23] = system: HL-60
[24] = system: EKVX
[25] = system: BT-549
[26] = system: OVCAR-8
[27] = system: TK-10
[28] = system: SF-539
[29] = system: SNB-19
[30] = system: SF-295
[31] = system: MDA-MB-435
[32] = system: Hs-578T
[33] = system: SW-620
[34] = system: MDA-MB-231
[35] = system: SR
[36] = system: NCI-H522
[37] = system: A498
[38] = system: SK-MEL-2
[39] = system: IGROV-1
[40] = system: KM12
[41] = system: NCI-H23
[42] = system: OVCAR-3
[43] = system: ACHN
[44] = system: MCF7
[45] = system: NCI-H226
[46] = system: A549
[47] = system: HT-29
[48] = system: RPMI-8226
[49] = system: DU-145
[50] = system: MOLT-4
[51] = system: HOP-92
[52] = system: HOP-62
[53] = system: CAKI-1
[54] = system: NCI-H460
[55] = system: UACC-257
[56] = system: SF-268
[57] = system: SK-MEL-28
[58] = system: RXF 393

`N#CC1(C#N)C(c2ccccc2)C=CC(c2ccc([N+](=O)[O-])cc2)C1(C#N)C#N` (centres undefined) was tested, and the GI50 [1] was 3.69 µM, the GI50 [2] was 12.2 µM (inactive) and the GI50 [3] was 3.8 µM (inactive). The GI50 [4] was 20.4 µM (inactive), the GI50 [5] was 19.4 µM (inactive) and the GI50 [6] was 12 µM (inactive). For the same compound, the GI50 [7] was 13.7 µM (inactive), the GI50 [8] was 2.67 µM (inactive) and the GI50 [9] was 0.278 µM (active). For the same compound, the GI50 [10] was 4.59 µM (inactive), the GI50 [11] was 6.22 µM (inactive) and the GI50 [12] was 16.5 µM (inactive). The GI50 [13] was 2.61 µM (inactive), the GI50 [14] was 10.7 µM (inactive) and the GI50 [15] was 17.1 µM (inactive). For the same compound, the GI50 [16] was 4.83 µM (inactive), the GI50 [17] was 1.57 µM (inactive) and the GI50 [18] was 3.01 µM (inactive). The GI50 [19] was 8.38 µM (inactive), the GI50 [20] was 18.5 µM (inactive) and the GI50 [21] was 2.35 µM (inactive). The GI50 [22] was 24.7 µM (inactive), the GI50 [23] was 0.223 µM (active) and the GI50 [24] was 14.8 µM (inactive). For the same compound, the GI50 [25] was 10.4 µM (inactive), the GI50 [26] was 11.2 µM (inactive) and the GI50 [27] was 3.65 µM (inactive). The GI50 [28] was 2.81 µM (inactive), the GI50 [29] was 15.1 µM (inactive) and the GI50 [30] was 18.5 µM (inactive). For the same compound, the GI50 [31] was 3.37 µM (inactive), the GI50 [32] was 17.9 µM (inactive) and the GI50 [33] was 3.66 µM (inactive). The GI50 [34] was 13.4 µM (inactive), the GI50 [35] was 2.53 µM (inactive) and the GI50 [36] was 3.21 µM (inactive). For the same compound, the GI50 [37] was 16.6 µM (inactive), the GI50 [38] was 17.1 µM (inactive) and the GI50 [39] was 14 µM (inactive). For the same compound, the GI50 [40] was 22.1 µM (inactive), the GI50 [41] was 12.4 µM (inactive) and the GI50 [42] was 9.98 µM (inactive). The GI50 [43] was 3.43 µM (inactive), the GI50 [44] was 5.98 µM (inactive) and the GI50 [45] was 17.3 µM (inactive). The GI50 [46] was 17.7 µM (inactive), the GI50 [47] was 3.61 µM (inactive) and the GI50 [48] was 2.91 µM (inactive). For the same compound, the GI50 [49] was 14.2 µM (inactive), the GI50 [50] was 2.3 µM (inactive) and the GI50 [51] was 3.43 µM (inactive). The GI50 [52] was 17.3 µM (inactive), the GI50 [53] was 3.66 µM (inactive) and the GI50 [54] was 30.3 µM (inactive). For the same compound, the GI50 [55] was 16.3 µM (inactive), the GI50 [56] was 17.5 µM (inactive) and the GI50 [57] was 15.8 µM (inactive).
With `Cc1ccc(O)c(C(=O)/C=C/c2ccccc2)c1` the GI50 [1] was over 100 µM, the GI50 [2] was > 100 µM (inactive) and the GI50 [3] was > 100 µM (inactive). The GI50 [4] was > 100 µM (inactive), the GI50 [58] was > 100 µM (inactive) and the GI50 [5] was > 100 µM (inactive). For the same compound, the GI50 [6] was > 100 µM (inactive), the GI50 [7] was > 100 µM (inactive) and the GI50 [8] was > 100 µM (inactive). For the same compound, the GI50 [9] was > 100 µM (inactive), the GI50 [10] was > 100 µM (inactive) and the GI50 [11] was > 100 µM (inactive). For the same compound, the GI50 [12] was 78.9 µM (inactive), the GI50 [13] was > 100 µM (inactive) and the GI50 [14] was > 100 µM (inactive). For the same compound, the GI50 [15] was > 100 µM (inactive), the GI50 [16] was > 100 µM (inactive) and the GI50 [17] was > 100 µM (inactive). For the same compound, the GI50 [18] was > 100 µM (inactive), the GI50 [19] was 53.5 µM (inactive) and the GI50 [20] was > 100 µM (inactive). The GI50 [21] was > 100 µM (inactive), the GI50 [22] was 49 µM (inactive) and the GI50 [23] was 23.1 µM (inactive). The GI50 [24] was > 100 µM (inactive), the GI50 [25] was > 100 µM (inactive) and the GI50 [26] was > 100 µM (inactive). The GI50 [27] was > 100 µM (inactive), the GI50 [28] was > 100 µM (inactive) and the GI50 [29] was > 100 µM (inactive). The GI50 [30] was > 100 µM (inactive), the GI50 [31] was > 100 µM (inactive) and the GI50 [32] was 78 µM (inactive). For the same compound, the GI50 [33] was > 100 µM (inactive), the GI50 [34] was > 100 µM (inactive) and the GI50 [35] was > 100 µM (inactive). For the same compound, the GI50 [36] was 5.81 µM (inactive), the GI50 [38] was > 100 µM (inactive) and the GI50 [39] was > 100 µM (inactive). For the same compound, the GI50 [40] was 1.37 µM (inactive), the GI50 [41] was > 100 µM (inactive) and the GI50 [42] was > 100 µM (inactive). The GI50 [43] was > 100 µM (inactive), the GI50 [44] was > 100 µM (inactive) and the GI50 [45] was > 100 µM (inactive). For the same compound, the GI50 [46] was > 100 µM (inactive), the GI50 [47] was > 100 µM (inactive) and the GI50 [48] was > 100 µM (inactive). The GI50 [49] was > 100 µM (inactive), the GI50 [50] was 9.93 µM (inactive) and the GI50 [51] was > 100 µM (inactive). The GI50 [52] was > 100 µM (inactive), the GI50 [53] was > 100 µM (inactive) and the GI50 [54] was > 100 µM (inactive). For the same compound, the GI50 [55] was > 100 µM (inactive), the GI50 [56] was > 100 µM (inactive) and the GI50 [57] was > 100 µM (inactive).
